The source made the active and inactive calls. The rule behind the calls is not given here.
Tests used:
HCT-116 [1] = test: Induction of MDM2 accumulation in HCT116 cells expressing wild type p53; assay type: functional, cell-based; details: Homo sapiens
HCT-116 [2] = test: Induction of p53 accumulation in HCT116 cells expressing wild type p53; assay type: functional, cell-based; details: Homo sapiens
HCT-116 [3] = test: Induction of p53 accumulation in isogenic HCT116 p53-/- cells; assay type: functional, cell-based; details: Homo sapiens
HCT-116 [4] = test: Induction of MDM2 accumulation in isogenic HCT116 p53-/- cells; assay type: functional, cell-based; details: Homo sapiens
[5] = molecular target: E3 ubiquitin-protein ligase Mdm2 (Homo sapiens, UniProt Q00987)
Chain of E3 ubiquitin-protein ligase Mdm2 (Q00987 whole entry): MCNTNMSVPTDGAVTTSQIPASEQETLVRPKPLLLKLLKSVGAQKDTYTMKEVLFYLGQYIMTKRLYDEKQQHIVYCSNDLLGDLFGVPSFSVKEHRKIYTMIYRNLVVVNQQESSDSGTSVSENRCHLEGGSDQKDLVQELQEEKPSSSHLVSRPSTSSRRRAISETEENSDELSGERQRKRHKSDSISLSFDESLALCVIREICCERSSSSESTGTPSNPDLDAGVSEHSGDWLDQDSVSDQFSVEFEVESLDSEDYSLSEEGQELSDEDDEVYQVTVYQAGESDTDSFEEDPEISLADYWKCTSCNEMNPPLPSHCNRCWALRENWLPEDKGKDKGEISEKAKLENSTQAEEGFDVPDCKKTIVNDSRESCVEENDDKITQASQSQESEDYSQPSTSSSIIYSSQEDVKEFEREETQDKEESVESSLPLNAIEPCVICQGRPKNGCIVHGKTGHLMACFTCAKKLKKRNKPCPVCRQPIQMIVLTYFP

HCT-116 [6] = test: Induction of p21 accumulation in isogenic HCT116 p53-/- cells; assay type: functional, cell-based; details: Homo sapiens
HCT-116 [7] = test: Induction of p21 accumulation in HCT116 cells expressing wild type p53; assay type: functional, cell-based; details: Homo sapiens

Which results are given for `Cc1ccc2ccc(C(Nc3ccccc3)c3ccccc3)c(O)c2n1` (configuration not stated)?
Activity (HCT-116 [1]): Dose-dependent effect; Activity (HCT-116 [2]): Dose-dependent effect; Activity (HCT-116 [3]): inactive; Activity (HCT-116 [4]): inactive; Ki [5]: 120 nM; Activity (HCT-116 [6]): inactive; Activity (HCT-116 [7]): Dose-dependent effect

Source: ChEMBL document CHEMBL1138059, “Discovery of a nanomolar inhibitor of the human murine double minute 2 (MDM2)-p53 interaction through an integrated, virtual database screening strategy” (J Med Chem, 2006)
